Results taken from US20070142412A1, “Crystalline form of 2-{4-['3-(4-chloro-2-fluorophenyl)-4-pyrimidin-4-yl-1h-pyrazol-5-yl]piperidin-1-yl}-2-oxoethanol” (priority 2003, published 2007).

Assay: Moisture sorption analysis (DVS) followed by PXRD
Type: physicochemical
Details: 25° C.
Experimental: The moisture sorption profile of the sample was determined using a Surface Measurement System (SMS) DVS-1 Automated Water Sorption Analyzer operating via SMS Software version 2.16. The change in mass of the sample versus relative humidity (RH) was monitored at 25° C. using a method from 30% to 0%, 0% to 90%, 90% to 0%, and 0% to 30% RH in 10% RH steps with dm/dt=3×10^−4. Maximum hold time per step was 4 hours. An approximately 15 mg sample was loaded onto the sample holder. The balance was calibrated with a 100 mg standard weight at 25° C. HPLC-grade water was used for the study. It is believed that about 0.5% water is believed to be surface bound moisture. To investigate the hydration state of the Form 1 hydrate, moisture sorption analysis was performed. At the conclusion of the study, the sample was removed from the moisture sorption balance and analyzed by PXRD. […] Constant mass was not obtained at 0% RH in the moisture sorption study; therefore, an additional moisture sorption study was conducted with increase maximum hold time per step to allow the sample to reach equilibrium over the low RH range. […] This theory is in no way to be construed as limiting.

With O=C(CO)N1CCC(c2[nH]nc(-c3ccc(Cl)cc3F)c2-c2ccncn2)CC1 [Form 1 hydrate, 2-{4-[3-(4-chloro-2-fluorophenyl)-4-pyrimidin-4-yl-1H-pyrazol-5-yl]piperidin-1-yl}-2-oxoethanol] the “Change in PXRD diffraction pattern after moisture sorption analysis” value (cycled 30% to 0%, 0% to 90%, 90% to 0%, 0% to 30% RH in 10% RH steps) was “No change was observed” and the “Water content indicated by moisture sorption data” value (at least 0.5% thought to be surface bound moisture) was “approximately 5.5%”.
